Test [1] addresses T1, Microsomal triglyceride transfer protein (MTP) from bovine liver (Bos taurus, UniProt P55156).
T1 construct: from tissue; host or cells: bovine liver
T1 sequence (P55156 12-887): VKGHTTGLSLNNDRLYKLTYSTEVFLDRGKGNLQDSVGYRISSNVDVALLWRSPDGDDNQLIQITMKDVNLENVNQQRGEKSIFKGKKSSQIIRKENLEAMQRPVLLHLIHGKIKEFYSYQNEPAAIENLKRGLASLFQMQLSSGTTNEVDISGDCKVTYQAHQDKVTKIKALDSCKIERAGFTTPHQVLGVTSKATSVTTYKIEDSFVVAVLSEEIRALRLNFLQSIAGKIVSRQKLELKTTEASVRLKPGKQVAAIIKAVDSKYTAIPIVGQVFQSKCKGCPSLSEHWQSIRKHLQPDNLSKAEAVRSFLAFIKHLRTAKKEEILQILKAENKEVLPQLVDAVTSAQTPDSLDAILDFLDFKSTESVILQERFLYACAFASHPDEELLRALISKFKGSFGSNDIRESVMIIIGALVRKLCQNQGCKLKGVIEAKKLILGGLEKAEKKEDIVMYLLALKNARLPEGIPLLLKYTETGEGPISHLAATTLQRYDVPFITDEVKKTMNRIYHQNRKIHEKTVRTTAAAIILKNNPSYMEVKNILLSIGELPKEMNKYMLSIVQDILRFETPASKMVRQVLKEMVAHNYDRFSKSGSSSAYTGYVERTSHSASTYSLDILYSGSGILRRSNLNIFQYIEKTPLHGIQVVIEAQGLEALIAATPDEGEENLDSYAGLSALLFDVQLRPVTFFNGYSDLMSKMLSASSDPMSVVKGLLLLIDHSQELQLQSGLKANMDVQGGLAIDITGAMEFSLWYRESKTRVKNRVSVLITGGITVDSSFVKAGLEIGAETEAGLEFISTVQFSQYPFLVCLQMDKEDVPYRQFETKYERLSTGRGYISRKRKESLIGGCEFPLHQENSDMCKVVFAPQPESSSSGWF
T1 sequence (P05307 21-510 partner): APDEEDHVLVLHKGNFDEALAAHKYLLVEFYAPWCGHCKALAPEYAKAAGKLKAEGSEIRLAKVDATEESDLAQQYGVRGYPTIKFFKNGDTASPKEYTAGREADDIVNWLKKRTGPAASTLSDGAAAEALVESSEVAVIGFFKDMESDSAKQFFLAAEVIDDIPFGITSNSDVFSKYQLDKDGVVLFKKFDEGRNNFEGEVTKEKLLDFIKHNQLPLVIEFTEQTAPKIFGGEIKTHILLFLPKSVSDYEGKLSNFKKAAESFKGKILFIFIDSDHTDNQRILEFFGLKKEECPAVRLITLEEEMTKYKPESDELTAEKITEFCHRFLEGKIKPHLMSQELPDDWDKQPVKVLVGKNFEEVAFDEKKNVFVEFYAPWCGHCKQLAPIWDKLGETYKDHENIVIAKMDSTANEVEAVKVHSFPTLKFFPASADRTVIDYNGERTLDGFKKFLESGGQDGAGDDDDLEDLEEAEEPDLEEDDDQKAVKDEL
The experiment in a line: Test Example 1: inhibition of interliposomal triglyceride (TG) transfer activity by MTP (also used for metabolites in Test Example 8). In kind it is biochemical. The conditions noted are these: MTP-mediated 14C-triolein transfer between liposomes, 37° C., one hour; read-out: Test Example 1 MTP inhibition IC50. As to the method: Inhibition of Interliposomal Triglyceride (TG) Transfer Activity by MTP
Microsomal triglyceride transfer protein (MTP) from bovine liver was partially purified in such a way described below. A buffer (50 mM Tris, 250 mM sucrose, 1 mM EDTA, 0.02% NaN3 (pH 7.4)) for making a homogenate preparation was added to bovine liver, and the mixture was homogenated under ice-cooling, then centrifuged at 10,000×g (4° C., 30 minutes). The supernatant was adjusted to pH 5.1 with hydrochloric acid, and stirred for 30 minutes. The solution was further centrifuged at 10,000×g (4° C., 30 minutes), and 1 mM Tris buffer was added to the precipitated residue, and the mixture was adjusted to pH 8.6 with sodium hydroxide. After addition of 2.7M ammonium sulfate solution, the mixture was stirred for 30 minutes, then centrifuged at 10,000×g (4° C., 40 minutes). The resulting supernatant was served as a crude extraction fraction of MTP and stored at −80° C. under freezing. In its practical use, the crude extraction fraction of MTP was purified by column chromatography on diethylaminoethyl (DEAE) Sepharose using FPLC (Fast Performance Liquid Chromatography) system, and the purified MTP was used for the test.
Small unilamellar-vesicle (SUV) liposome (donor, 0.25 mol % triolein, 5 mol % cardiolipin) labeled with ^14C-triolein and non-labeled SUV liposome (acceptor, 0.25 mol % triolein) were prepared. A fixed amount of donor and acceptor, and MTP were mixed with a sample dissolved in DMSO or with DMSO. The mixture was incubated in a 15 mM Tris hydrochloride buffer (pH 7.4) containing 40 mM sodium chloride, 1 mM EDTA (ethylenediaminetetraacetic acid), 0.02% NaN3 and 0.5% bovine serum albumin at 37° C. for one hour. After completion of the incubation, a suspension of DEAE cellulose (50% v/v) in 15 mM Tris hydrochloride buffer (pH 7.4) was added to the above solution, and the mixture was centrifuged to separate the donor and the acceptor. The radioactivity in the acceptor was measured by liquid scintillation counter. The value obtained by subtracting the radioactivity in the blank from the amount of radioactivity in the acceptor of a DMSO group was determined as MTP-mediated TG transfer activity, and it was compared with the value obtained by subtracting the radioactivity in the blank from the radioactivity in a sample group. The blank was prepared by adding 15 mM Tris-HCl buffer (pH 7.4) in place of MTP. Inhibition rate (%) was calculated from the values obtained according to the following equation.
Inhibition rate (%)=100×(1 minus ((radioactivity of sample group minus radioactivity of blank group)/(radioactivity of DMSO group minus radioactivity of blank group))).
50% Inhibition rate (IC50) was determined on the basis of the above equation.
Inhibitory Activity on MTP and apo B Secretion Inhibition by Metabolites
In a similar manner to Test Examples 1 and 2, the activity of metabolites was assayed.

The next test deals with HepG2 cells. The test can be described thus: Test Example 2: inhibition of apolipoprotein B secretion from HepG2 cells, ELISA (also used for metabolites in Test Example 8). Particulars: Homo sapiens, 24 hours, apo B in supernatant by ELISA, read-out: Test Example 2 Inhibition of apo B secretion IC50. In kind it is cell-based. Summed up: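 HepG2 cells cultured 24 h, then exposed 24 h to compounds or metabolites in medium with 0.5% DMSO. Secreted apo B in supernatant quantified by sandwich ELISA (HRP, ABTS, 405 nm) against purified human apo B standard; % inhibition vs DMSO group, IC50 derived.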
In general terms: In an ELISA, binding on a coated surface is turned into a signal by an enzyme label.

The values that follow come from patent US7625948B2, “Ester compound and medicinal use thereof” (Japan Tobacco Inc., priority 2002, dated 2009).

SMILES strings stand for the structures.

As for `CCOC(=O)C(COC(=O)Cc1ccc(NC(=O)c2ccccc2-c2ccc(C(F)(F)F)cc2)c(OC)c1)(C(=O)OCC)c1ccccc1` [Example 3-4], the IC50 was 2.1 nM in test [1] and 13 nM in the test with HepG2 cells.

On to `CCOC(=O)C(COC(=O)Cc1ccc(NC(=O)c2ccccc2-c2ccc(C(F)(F)F)cc2)c(OCc2ccccc2)c1)(C(=O)OCC)c1ccccc1` [Example 3-14], for which the IC50 in test [1] is 13 nM; with HepG2 cells, 64 nM.

Turning to `CCOC(=O)C(CCOC(=O)Cc1cccc(NC(=O)c2ccccc2-c2ccc(C(F)(F)F)cc2)c1C)(C(=O)OCC)c1ccccc1` [Example 5, 2-[2-(2-{2-methyl-3-[(4′-trifluoromethylbiphenyl-2-carbonyl)amino]phenyl}acetoxy)ethyl]-2-phenylmalonic acid diethyl ester], the IC50 in test [1] turned out to be 3.1 nM; with HepG2 cells, 19 nM.

`CCOC(=O)C(COC(=O)Cc1cccc(NC(=O)c2ccccc2-c2ccc(C(F)(F)F)cc2)c1)(C(=O)OCC)c1ccccc1` [Example 5-2]: the values for the 50% inhibitory concentration (IC50) (in test [1]; in the test on HepG2 cells) were 66.5 nM and 875 nM, respectively.

In the case of `CCOC(=O)C(CCOC(=O)Cc1cccc(NC(=O)c2ccccc2-c2ccc(C(F)(F)F)cc2)c1)(C(=O)OCC)c1ccccc1` [Example 5-3], the concentration for half-maximal inhibition (IC50) in test [1] worked out at 6.2 nM; with HepG2 cells it was 86.5 nM.

In the case of `CCNC(=O)C(CCOC(=O)Cc1cccc(NC(=O)c2ccccc2-c2ccc(C(F)(F)F)cc2)c1)(C(=O)NCC)c1ccccc1` [Example 5-4], the values for the half-inhibitory concentration (IC50) (in test [1]; in the test on HepG2 cells) were 2.4 nM and 57 nM, respectively.

As for `CCCNC(=O)C(CCOC(=O)Cc1cccc(NC(=O)c2ccccc2-c2ccc(C(F)(F)F)cc2)c1)(C(=O)NCCC)c1ccccc1` [Example 5-5], the IC50 worked out at 4.5 nM in test [1] and 5 nM in the test on HepG2 cells.

Take `CCOC(=O)C(CCOC(=O)Cc1ccc(C)c(NC(=O)c2ccccc2-c2ccc(C(F)(F)F)cc2)c1)(C(=O)OCC)c1ccccc1` [Example 5-6]: the values for the half-inhibitory concentration (IC50) (in test [1]; in the test on HepG2 cells) were 3.9 nM and 260 nM, respectively.

For the molecule `CC(C)NC(=O)C(CCOC(=O)Cc1cccc(NC(=O)c2ccccc2-c2ccc(C(F)(F)F)cc2)c1)(C(=O)NC(C)C)c1ccccc1` [Example 5-8], the half-maximal inhibitory concentration (IC50) in test [1] came out at 14 nM; with HepG2 cells it was 340 nM.

Regarding `CCNC(=O)C(CCCOC(=O)Cc1cccc(NC(=O)c2ccccc2-c2ccc(C(F)(F)F)cc2)c1C)(C(=O)NCC)c1ccccc1` [Example 5-10], the half-maximal inhibitory concentration (IC50) in test [1] was found to be 6.2 nM; with HepG2 cells it was 300 nM.

Consider `O=C(OCCC1(C(=O)NCC(F)(F)F)c2ccccc2-c2ccccc21)c1ccc(NC(=O)c2ccccc2-c2ccc(C(F)(F)F)cc2)cc1` [Example 6, 4-[(4′-Trifluoromethylbiphenyl-2-carbonyl)amino]benzoic acid 2-[9-(2,2,2-trifluoroethylcarbamoyl)-9H-fluoren-9-yl]ethyl ester], for which the 50% inhibitory concentration (IC50) in test [1] stood at 3.47 nM; in the test on HepG2 cells, 58.3 nM.

Consider `O=C(Nc1ccccc1-c1ccccc1)c1ccc(C(=O)OCCC2(C(=O)NCC(F)(F)F)c3ccccc3-c3ccccc32)cc1` [Example 6-3], for which the half-inhibitory concentration (IC50) worked out at 5.2 nM in test [1] and 510 nM with HepG2 cells.

As for `O=C(OCCC(C(=O)NCC(F)(F)F)(c1ccccc1)c1ccccc1)c1ccc(NC(=O)c2ccccc2-c2ccc(C(F)(F)F)cc2)cc1` [Example 6-8], the figures for the 50% inhibitory concentration (IC50) (in test [1]; in the test on HepG2 cells) were 50 nM and 630 nM, respectively.

`O=C(OCCC(C(=O)NCC(F)(F)F)c1ccccc1)c1ccc(NC(=O)c2ccccc2-c2ccc(C(F)(F)F)cc2)cc1` (stereo not shown) [Example 6-10]: the concentration for half-maximal inhibition (IC50) in test [1] stood at 22 nM; in the test on HepG2 cells it was 870 nM.

On to `CCOC(=O)C(CCOC(=O)c1ccc(NC(=O)c2ccccc2-c2ccc(C(F)(F)F)cc2)cc1)(C(=O)OCC)c1ccccc1` [Example 6-14], for which the IC50 worked out at 6.3 nM in test [1] and 87 nM in the test on HepG2 cells.

Take `CCOC(=O)C(CCOC(=O)c1ccc(NC(=O)c2ccccc2-c2ccc(C(F)(F)F)cc2)c(C)c1)(C(=O)OCC)c1ccccc1` [Example 6-15]: the IC50 came out at 2 nM in test [1] and 57 nM in the test with HepG2 cells.

With `CCOC(=O)C(CCOC(=O)c1ccc(NC(=O)c2ccccc2-c2ccc(C(F)(F)F)cc2)cc1Cl)(C(=O)OCC)c1ccccc1` [Example 6-16], the concentration for half-maximal inhibition (IC50) in test [1] came out at 2.9 nM; with HepG2 cells it was 170 nM.

In the case of `CCOC(=O)C(CCOC(=O)c1ccc(OC(=O)c2ccccc2-c2ccc(C(F)(F)F)cc2)cc1)(C(=O)OCC)c1ccccc1` [Example 6-17], the half-maximal inhibitory concentration (IC50) was 2.3 nM in test [1] and 420 nM in the test with HepG2 cells.

Regarding `CCNC(=O)C(CCOC(=O)c1ccc(NC(=O)c2ccccc2-c2ccc(C(F)(F)F)cc2)cc1)(C(=O)NCC)c1ccccc1` [Example 6-19], the 50% inhibitory concentration (IC50) in test [1] is 3.2 nM; in the test on HepG2 cells, 35 nM.

`CCNC(=O)C(CCOC(=O)c1ccc(OC(=O)c2ccccc2-c2ccc(C(F)(F)F)cc2)cc1)(C(=O)NCC)c1ccccc1` [Example 6-21]: the IC50 in test [1] stood at 9.8 nM; with HepG2 cells, 920 nM.

Take `O=C(N[C@H]1CC[C@H](C(=O)OCCC2(C(=O)NCC(F)(F)F)c3ccccc3-c3ccccc32)CC1)c1ccccc1-c1ccc(C(F)(F)F)cc1` [Example 7, Trans-4-[(4′-trifluoromethylbiphenyl-2-carbonyl)amino]cyclohexanecarboxylic acid 2-[9-(2,2,2-trifluoroethylcarbamoyl)-9H-fluoren-9-yl]ethyl ester]: the IC50 turned out to be 4.97 nM in test [1] and 60 nM in the test on HepG2 cells.

With `O=C(N[C@H]1CC[C@@H](C(=O)OCCC2(C(=O)NCC(F)(F)F)c3ccccc3-c3ccccc32)CC1)c1ccccc1-c1ccc(C(F)(F)F)cc1` [Example 7-2], the IC50 in test [1] stood at 2.46 nM; in the test on HepG2 cells, 26 nM.

`CCOC(=O)C(CCOC(=O)C1CCC(NC(=O)c2ccccc2-c2ccc(C(F)(F)F)cc2)CC1)(C(=O)OCC)c1ccccc1` (stereo not shown) [Example 7-5]: the IC50 in test [1] turned out to be 16.2 nM; with HepG2 cells, 237 nM.

Usually IC50 stands for the concentration that inhibits the measured activity by half.
